Three molecules from patent US11427526B2, “Method of preparing hydroxytyrosol cinnamic acid ester with antioxidant and antibacterial activities” (XI'AN KANGYUANSHENG BIOMEDICAL TECHNOLOGY CO., LTD., priority 2020, dated 2022) can be followed below.

Bounds are passed on as bounds.

One assay deals with carbapenem-resistant Acinetobacter baumannii CR-AB 18-183. Nature of the assay: MIC by microbroth dilution, CR-AB 18-183. The assay is classed as cell-based. The note with it: strain CR-AB 18-183. Here is the method:
(§1) The minimal inhibitory concentrations (MIC) of the compounds were determined by microbroth dilution method with gentamicin, cefazolin sodium and ceftriaxone sodium as positive control.
(§2) The experimental strains included methicillin-resistant Gram-positive bacteria: methicillin-resistant Straphylococcus aureus MRSA 18-222, 18-575; multiple drug-resistant Gram-negative bacteria: vancomycin-resistant Enterococci VRE 18-80, 18-94, multidrug-resistant Pseudomonas aeruginosa MDR-PA 18-1774, 18-202, carbapenem-resistant Acinetobacter baumannii CR-AB 18-183, 18-560. All the experimental strains were donated by Huashan Hospital affiliated to Fudan University (Institute of antibiotics, Fudan University) and used after routine identification.
(§3) Preparation of MHB medium: 20.0 g MHB medium was added to 1 L distilled water, boiled until completely dissolved, packed in conical bottles and sterilized at 121° C. for 15 min.
(§4) The experimental strain was cultured to the logarithmic growth phase: under aseptic condition, the experimental strain was inoculated into 100 mL MHB medium and incubated in a constant temperature and humidity incubator at 37° C. for 20-22 hours.
(§5) Preparation of storage solution: weighing the sample to be tested, dissolving it with 1% DMSO solution, preparing a storage solution with a concentration of 2560 μg/mL, weighing a positive reference substance, dissolving it with aseptic distilled water, and configuring a storage solution with a concentration of 2560 μg/mL.
(§6) Preparation of bacterial suspension: under aseptic condition, the experimental strains cultured to logarithmic growth phase were adjusted to 0.5 MCF turbidity standard with MHB medium and diluted according to 1:10, and the bacterial suspension with concentration of 10^6 CFU/mL was prepared for standby.
(§7) Dilution of storage solution and inoculation of experimental strain: under aseptic condition, the storage solution was diluted to 256 μg/mL solution. Taking a sterile 96-well plate, adding 200 μL MHB medium to the 12th well, and adding 100 μL MHB medium to each well. Adding 100 μL of positive control solution to the first well, mixing well, and taking 100 μL and discard. Adding 100 μL of the compound sample solution to the second well, mixing well, and then pipetting 100 μL to the third well. After mixing, pipetting 100 μL to the fourth well, and diluting to the 11th well in the same way. Finally, 100 μL was pipetted from the 11th well and discarded. The 12th hole was the growth control without drugs. The concentration of the positive reference substance was 128 μg/mL, the concentrations of the sample solution were 128, 64, […] respectively. Then, 100 μL of the prepared bacterial suspension was added to each well, so that the final concentration of the bacterial liquid in each well was 5×10^5 CFU/mL.
(§8) Incubation: Covering the 96-well plate inoculated with the experimental strains, and incubating in a constant temperature and humidity box at 37° C. for 20-22 hours.
In general terms: Dilution methods test growth across graded concentrations, often in twofold steps.
Consider `O=C(O)C=Cc1ccccc1` [Cinnamic acid], for which the Minimum bacteriostatic concentration was above 128 µg/mL.
The same measure, in the same setting: in the case of `OCCc1ccc(O)c(O)c1` [Hydroxytyrosol] it was above 128 µg/mL.
On the same count and under the same terms, in the case of Gentamicin it was above 128 µg/mL.

The next assay concerns vancomycin-resistant Enterococci VRE 18-94. Nature of the assay: MIC by microbroth dilution, VRE 18-94. The assay is classed as cell-based. The note with it: strain VRE 18-94. As to the method:
as §1, §2, §3, §4, §5, §6, §7, §8
Take `O=C(O)C=Cc1ccccc1` [Cinnamic acid]: the Minimum bacteriostatic concentration is above 128 µg/mL.
Still for that read-out and setting: in the case of `OCCc1ccc(O)c(O)c1` [Hydroxytyrosol] it was above 128 µg/mL.
Still for that read-out and setting: in the case of Gentamicin it was above 128 µg/mL.

For a further assay, the system named is carbapenem-resistant Acinetobacter baumannii CR-AB 18-560. Briefly: MIC by microbroth dilution, CR-AB 18-560. It is filed as cell-based. Conditions: strain CR-AB 18-560. Here is the method:
as §1, §2, §3, §4, §5, §6, §7, §8
With `O=C(O)C=Cc1ccccc1` [Cinnamic acid], the Minimum bacteriostatic concentration was above 128 µg/mL.
On the same count and under the same terms, in the case of `OCCc1ccc(O)c(O)c1` [Hydroxytyrosol] it was above 128 µg/mL; in that of Gentamicin, above 128 µg/mL.

System in the next assay: not listed separately
Nature of the assay: DPPH radical scavenging activity assay. The note with it: 1.76 ppm, n = 3. As to the method: The antioxidant activity of the hydroxytyrosol cinnamic acid ester was measured by a DPPH radical scavenging activity assay. 2,2-Diphenyl-1-picryl hydrazyl (DPPH) is an organic compound composed of a stable organic radical. In the DPPH molecule, due to the presence of multiple electron-withdrawing —NO2 and large π bonds of the benzene ring, nitrogen free radical is stabilized. Its methanol solution is purple and has a maximum absorption peak at 517 nm. After the addition of an antioxidant, DPPH captures an electron to be paired with the free electron, and the purple fades and turns into a yellow substance. The absorption at 517 nm disappears, and the degree of fading is quantitatively related to the number of electrons it captures. Based on this principle, a spectrophotometer is used to detect the change of the absorbance of the DPPH radical and the sample solution, and the ability of the sample to provide hydrogen atoms and scavenge free radicals can be measured. measuring exact amount of 2,2-diphenyl-1-picryl hydrazyl (DPPH) and dissolving in toluene to prepare a 0.2 mmoL/L DPPH solution, stored at 0° C. in dark. Vc (positive control), hydroxytyrosol cinnamic acid ester (sample), hydroxytyrosol (control) and cinnamic acid (control). The sample solution was subjected to gradient dilution with toluene, and three sets of controls were separately dissolved in a test tube with a certain amount of toluene to prepare the same concentration gradient as the sample. Sample liquid absorbance measurement: Take 2 mL of sample solution (Table 1 Vc, B, C), add 2 mL of DPPH solution with concentration of 2×10^−4 moL/L, mix and react in the dark at room temperature for 30 min, adjust to zero with toluene, and measure at 517 nm. The absorbance Ai was simultaneously measured for the absorbance Aj of 2 mL of toluene mixed with 2 mL of the sample solution and the absorbance Ao of 2 mL of DPPH solution mixed with 2 mL of toluene (The experimental results are shown in Table 2). Clearance calculation: Clearance Rate (%)=[1−(Ai−Aj)/Ao]*100%
For orientation: Loss of DPPH colour is used to gauge radical scavenging.
`O=C(O)C=Cc1ccccc1` [Cinnamic acid]: the DPPH clearance rate worked out at 6.45%.

Staying with this assay, now noted: 8.80 ppm, n = 3.
Molecule `O=C(O)C=Cc1ccccc1` [Cinnamic acid] showed a DPPH clearance rate of 8.20%.

Staying with this assay, now noted: 21.12 ppm, n = 3.
`O=C(O)C=Cc1ccccc1` [Cinnamic acid] showed a DPPH clearance rate of 14.52%.

The assay is the same for the next values; noted with them: 42.24 ppm, n = 3.
Take `O=C(O)C=Cc1ccccc1` [Cinnamic acid]: the DPPH clearance rate is 20.33%.

Staying with this assay, now noted: 79.20 ppm, n = 3.
Molecule `O=C(O)C=Cc1ccccc1` [Cinnamic acid] showed a DPPH clearance rate of 31.75%.

The assay is the same for the next values; noted with them: 112.64 ppm, n = 3.
`O=C(O)C=Cc1ccccc1` [Cinnamic acid] yielded a DPPH clearance rate of 38.62%.

Still in this assay, the particulars now being: 281.60 ppm, n = 3.
Molecule `O=C(O)C=Cc1ccccc1` [Cinnamic acid] registered a DPPH clearance rate of 54.12%.

Staying with this assay, now noted: 492.80 ppm, n = 3.
The molecule `O=C(O)C=Cc1ccccc1` [Cinnamic acid] yielded a DPPH clearance rate of 59.60%.

Staying with this assay, now noted: 792.00 ppm, n = 3.
Molecule `O=C(O)C=Cc1ccccc1` [Cinnamic acid] registered a DPPH clearance rate of 70.53%.

Staying with this assay, now noted: 915.20 ppm, n = 3.
The molecule `O=C(O)C=Cc1ccccc1` [Cinnamic acid] showed a DPPH clearance rate of 71.89%.

In a further assay the test system is methicillin-resistant Straphylococcus aureus MRSA 18-222. Briefly: MIC by microbroth dilution, MRSA 18-222. Conditions: strain MRSA 18-222. It is filed as cell-based. Here is the method:
as §1, §2, §3, §4, §5, §6, §7, §8
Turning to `O=C(O)C=Cc1ccccc1` [Cinnamic acid], the Minimum bacteriostatic concentration was above 128 µg/mL.
Same read-out and setting: in the case of `OCCc1ccc(O)c(O)c1` [Hydroxytyrosol] it was above 128 µg/mL; in that of Gentamicin, 128 µg/mL.

The next assay relates to multidrug-resistant Pseudomonas aeruginosa MDR-PA 18-174. Nature of the assay: MIC by microbroth dilution, MDR-PA 18-174. Conditions: strain MDR-PA 18-174. The assay is classed as cell-based. As to the method:
as §1, §2, §3, §4, §5, §6, §7, §8
`O=C(O)C=Cc1ccccc1` [Cinnamic acid]: the Minimum bacteriostatic concentration is above 128 µg/mL.
On the same count and under the same terms, in the case of `OCCc1ccc(O)c(O)c1` [Hydroxytyrosol] it was above 128 µg/mL.
Still for that read-out and setting: in the case of Gentamicin it was 0.0625 µg/mL.

The test system of the next assay is vancomycin-resistant Enterococci VRE 18-80. Briefly: MIC by microbroth dilution, VRE 18-80. The assay is classed as cell-based. The note with it: strain VRE 18-80. Here is the method:
as §1, §2, §3, §4, §5, §6, §7, §8
In the case of `O=C(O)C=Cc1ccccc1` [Cinnamic acid], the Minimum bacteriostatic concentration was above 128 µg/mL.
For `OCCc1ccc(O)c(O)c1` [Hydroxytyrosol], the Minimum bacteriostatic concentration was above 128 µg/mL.
Molecule Gentamicin came in with a Minimum bacteriostatic concentration of 0.0625 µg/mL.

In another assay the test system is methicillin-resistant Straphylococcus aureus MRSA 18-575. Nature of the assay: MIC by microbroth dilution, MRSA 18-575. It is filed as cell-based. The note with it: strain MRSA 18-575. As to the method:
as §1, §2, §3, §4, §5, §6, §7, §8
`O=C(O)C=Cc1ccccc1` [Cinnamic acid] came in with a Minimum bacteriostatic concentration above 128 µg/mL.
The same measure, in the same setting: in the case of `OCCc1ccc(O)c(O)c1` [Hydroxytyrosol] it was above 128 µg/mL.
On the same count and under the same terms, in the case of Gentamicin it was 2 µg/mL.

The test system of another assay is drug-resistant bacteria. Nature of the assay: Antibacterial activity test, summary over all experimental strains. The assay is classed as cell-based. Conditions: text summary of FIGS. 2-3 and Table 4. As to the method:
as §1, §2, §3
The experimental strain was cultured to the logarithmic growth phase: under aseptic condition, the experimental strain was inoculated into 100 mL MHB medium and incubated in a constant temperature and humidity incubator at 37° C. for 20-22 hours. […]
Turning to `O=C(O)C=Cc1ccccc1` [Cinnamic acid], the “inhibitory effect on drug-resistant bacteria” value is “no inhibitory effect”.
On to `OCCc1ccc(O)c(O)c1` [Hydroxytyrosol], for which the “inhibitory effect on drug-resistant bacteria” value is given as “no inhibitory effect”.

In a further assay the test system is multidrug-resistant Pseudomonas aeruginosa MDR-PA 18-202. Nature of the assay: MIC by microbroth dilution, MDR-PA 18-202. The assay is classed as cell-based. The note with it: strain MDR-PA 18-202. Here is the method: as §1, §2, §3, §4, §5, §6, §7, §8
`O=C(O)C=Cc1ccccc1` [Cinnamic acid] showed a Minimum bacteriostatic concentration above 128 µg/mL.
On the same count and under the same terms, in the case of `OCCc1ccc(O)c(O)c1` [Hydroxytyrosol] it was above 128 µg/mL.
Same read-out and setting: in the case of Gentamicin it was 0.0625 µg/mL.
